Series [1] is classed as in vivo. Conditions: cisplatin-treated vs saline mice, seven weekly injections; listed as Cisplatin. Here is the method: To protect from kidney damage, mice were simultaneously subcutaneously (s.c.) injected with 1 mL of saline solution. Four weeks after the last injection of cisplatin, mice were euthanized for analysis, transplanted (see below) or mobilized with granulocyte colony-stimulating factor (G-CSF, see below). […] To induce neuroprotection from 60HDA, mice were injected with 4-MC (10 μg/kg; i.p.) or GDNF-Fc (5 μg per mice; s.c.) for 5 days, starting the treatment the same day as the first injection of 60HDA. To evaluate the effect of different treatments on the sensory response, the hot-plate test was performed as described in Raaijmakers et al., Curr. Opin. Hematol. 15:301 (2008), incorporated herein by reference. An Isotemp Dryblock (Fisher Scientific) was heated to, and maintained at, 50° C. Mice were individually placed on top of the heated surface and the time to the first episode of nociception (jumping or paw licking) was measured. The cut-off time was 60 seconds. Between measurements, the heated surface was thoroughly cleaned with detergent and ethanol and the temperature was allowed to stabilize at 50° C.

A further series concerns bone marrow. The series can be described thus: Bone marrow hematopoietic recovery after transplantation (BMNC, CFU-C, Lin-Sca1+c-kit+flt3- cells). The format is in vivo, mice. Here is the method: Mice were irradiated (1,200 cGy, two split doses, 3 hours apart) in a Cesium Mark 1 irradiator (JL Shepperd & associates). Three hours later, the indicated number of BMNCs was injected retroorbitally in the irradiated recipients under isoflurane (Phoenix Pharmaceuticals) anesthesia. Mice were allowed to recover and analyzed at the indicated time points. […]
(§1) Blood was harvested by retro-orbital sampling of mice anesthetized with isoflurane and collected in polypropylene tubes containing ethylenediaminetetraacetic acid (EDTA). Blood parameters were determined with an AcT differential counter (Beckman-Coulter). CFU-C assays were performed as described in He et al., Ann. Rev. Cell. Dev. Biol. 25:377 (2009), incorporated herein by reference. For flow cytometry, red blood cells were lysed thrice for 5 minutes at 4° C. in 0.15 M NH4Cl, cells were washed once in ice-cold PBS and counted in a hemocytometer. To determine Lin^−Sca1^+c-kit^+ or Lin^−Sca1^+c-kit^+ft13^− numbers, 10^6 cells were stained with the Mouse Lineage Panel (BD Biosciences) together with FITC-conjugated anti-Sca-1 antibody (BD Biosciences), PE-Cy7-conjugated anti-c-kit antibody (eBioscience) and PE-conjugated anti-flt3 antibody (eBioscience). Cells were further stained with streptavidin-Cy5 (Jackson Immunotech) and analyzed with a BD LSR11 system (BD Biosciences). Bone marrow was harvested by flushing the bone with 1 mL of ice-cold PBS, red blood cells were lysed once for 5 minutes at 4° C. in 0.15 M NH4Cl, cells were washed once in ice-cold PBS and counted with a hemocytometer. CFU-C and Lin^−Sca1^+c-kit^+ft13^− numbers were determined as above. In some experiments, CD150^+CD48^− cell numbers were determined by staining 5×10^6 cells with PE-anti-CD48 antibody (BD Biosciences) and PE-Cy7-anti-CD150 antibody (Biolegend).

On the set-up of series [2]: species or system mice. Conditions: mouse, in vivo. The procedure: (§2) To protect from kidney damage, mice were simultaneously subcutaneously (s.c.) injected with 1 mL of saline solution. Four weeks after the last injection of cisplatin, mice were euthanized for analysis, transplanted (see below) or mobilized with granulocyte colony-stimulating factor (G-CSF, see below).
To induce neuroprotection from 60HDA, mice were injected with 4-MC (10 μg/kg; i.p.) or GDNF-Fc (5 μg per mice; s.c.) for 5 days, starting the treatment the same day as the first injection of 60HDA.
Mice received G-CSF ([…]) s.c. every 12 hours for 5 days. Due to circadian oscillations on HSC mobilization, the last dose of G-CSF was administered 1 hour before blood collection at Zeigeber time 5.
as §1, with “To determine Lin^−Sca1^+c-kit^+ or Lin^−Sca1^+c-kit^+ft13^− numbers, 10^6 cells were stained with the Mouse Lineage Panel (BD Biosciences) together with FITC-conjugated anti-Sca-1 antibody (BD Biosciences), PE-Cy7-conjugated anti-c-kit antibody (eBioscience) and PE-conjugated anti-flt3 antibody (eBioscience).” left out

The nature of series [3]: Complete blood counts of moribund cisplatin-treated mice after BMNC transplantation. Format: in vivo. Conditions: after BMT. The procedure: as §2
Mice were irradiated (1,200 cGy, two split doses, 3 hours apart) in a Cesium Mark 1 irradiator (JL Shepperd & associates). Three hours later, the indicated number of BMNCs was injected retroorbitally in the irradiated recipients under isoflurane (Phoenix Pharmaceuticals) anesthesia. Mice were allowed to recover and analyzed at the indicated time points.
Blood was harvested by retro-orbital sampling of mice anesthetized with isoflurane and collected in polypropylene tubes containing ethylenediaminetetraacetic acid (EDTA). Blood parameters were determined with an AcT differential counter (Beckman-Coulter). CFU-C assays were performed as described in He et al., Ann. Rev. Cell. Dev. Biol. 25:377 (2009), incorporated herein by reference. For flow cytometry, red blood cells were lysed thrice for 5 minutes at 4° C. in 0.15 M NH4Cl, cells were washed once in ice-cold PBS and counted in a hemocytometer. […] Cells were further stained with streptavidin-Cy5 (Jackson Immunotech) and analyzed with a BD LSR11 system (BD Biosciences). […] CFU-C and Lin^−Sca1^+c-kit^+ft13^− numbers were determined as above. […]

The test system of a further series is TH+ fibers. The series can be described thus: Immunofluorescence quantification of TH+ sympathetic fibers in bone marrow / calvaria. The following applies: compared with vehicle control.
The test system of the next series is PC12ES cells. Description: Neural differentiation of PC12ES cells. Format: cell-based. Conditions: incubation for 1 week. The procedure:
The murine cDNA for glial cell-line derived neurotrophic factor (Gdnf) was obtained from Open Biosystems. This cDNA was amplified and restriction sites were added for cloning with the following primers Forward: ACGCTAGCAATGGGATTCGGGCCACTT (SEQ ID NO:1); Reverse: CGAGATCTGCGATACATCCACACCGTTTAG (SEQ ID NO:2). The PCR product was purified and cloned into the PCL5.1neg plasmid to generate PCL5.1neg-GDNF. This plasmid was purified and transfected into 293T cells. Two days after transfection, the supernatant was collected and GDNF-Fc purified in a Protein G-sepharose column (Pierce). To assess functional activity of GDNF-Fc recombinant protein, PC12ES cells were cultured in DMEM supplemented with 5% FBS, 10% horse serum, sodium-pyruvate (Gibco), L-Glutamine (Gibco) and penicillin/streptomycin (Gibco) for 3 days and then the media was replaced with DMEM supplemented with 1% horse serum, sodium-pyruvate (Gibco), L-Glutamine (Gibco), penicillin/streptomycin (Gibco) and varying amounts of GDNF-Fc to induce differentiation. Seven days later the percentage of PC12 ES cells with two or more dendrites was scored under an inverted microscope. For each concentration of GDNF-Fc, 10 fields were analyzed.

Procedure for TH+ fibers: Bones were collected and fixed for 1 hour in 4% paraformaldehyde (PFA) in PBS (Electron Microscopy Sciences) at 4° C. They were then post-fixed overnight in 1% PFA in PBS at 4° C. and cryoprotected for 24 hours in 30% sucrose. Bones were then included in OCT (Tissue Tek), sectioned (14 μm sections) in a Cryostat, and mounted on CFSA 4× Slides (Leica). TH^+ immunofluorescence staining was performed as previously described in Mendez-Ferrer, et al., Nature 452:442 (2008), incorporated herein by reference. For each mouse analyzed, the number of nerve fibers in 6 fields was quantified and plotted as per mm^2. For whole-mount immunofluorescence, calvaria were harvested by cutting along the temporal lines of the skull and immediately fixed in methanol. Bone tissues were blocked/permeabilized in PBS containing 20% FCS and 0.5% Triton and stained with APC-conjugated anti-PECAM CD31 antibody and TH (Millipore). Signal amplification for TH staining was achieved by using a signal amplification kit (Perkin Elmer). Whole-mount tissues were imaged face-down on an upright Olympus BX61WI microscope. The area between the frontal and parietal bones was identified by moving along the coronal suture and images were obtained from the same area for all mice, along the coronal vein on either side of the central vein. The numbers of individual nerve fibers running alongside blood vessels were quantified and plotted as per 100 μm vessel segment. All images were processed using Slidebook software (Intelligent Imaging Innovations, Inc.).

For the molecule `N.N.[Cl][Pt][Cl]` [cisplatin], in series [1], the “sensory neuropathy (latency time in nociception assay)” value was “induces peripheral neuropathy”. Besides, the “bone marrow cellularity of surviving mice after transplantation” value in the series on bone marrow (cisplatin-treated, four weeks after BMT) is listed as “severely aplastic”. Moreover, in the series with bone marrow (mouse, in vivo), the “BM recovery 3 months after transplantation” value is “not yet completely recovered” and the “HSC content by competitive repopulation assays” value is on record as “reduced HSC content”. Also, in series [2], the “number of mobilized progenitors in blood after G-CSF” value was “markedly reduced”; the “progenitor and Lin-Sca1+c-kit+flt3- HSC numbers in BM” value was “no significant change”; the “reduction in number of mobilized progenitors in blood” value was “approximately 50%”. Also, the “anemia in moribund mice” value in series [3] is reported as “severe anemia”. Besides, the “reduction of density of TH+ fibers in bone marrow” value with TH+ fibers is 65%.

B1: GDNF-HA: glial cell-derived neurotrophic factor-hemagluttinin fusion (protein, UniProt P39905 78-211, looked up)
Glial cell line-derived …: SPDKQMAVLPRRERNRQAAAANPENSRGKGRRGQRGKNRGCVLTAIHLNVTDLGLGYETKEELIFRYCSGSCDAAETTYDKILKNLSRNRRLVSDKVGQACCRPIAFDDDLSFLDDNLVYHILRKHSAKRCGCI
modifications: hemagglutinin tag
notes: glial cell-derived neurotrophic factor-hemagluttinin fusion
As for B1, the “neural differentiation of PC12ES cells (percent differentiated)” value in the series with PC12ES cells is given as “increase in the percent differentiation”.

The record behind these values is patent US20130230580A1, “Administration of SNS Neuroprotective Agents to Promote Hematopoietic Regeneration” (priority 2010, published 2013).
